Like-named read-outs stand apart in the source and are kept apart here. Each block holds one compound with its values, some of them ahead of it.
Tests used:
Format in all cases: biochemical
[1] = molecular target: T1, Alzheimer's Aβ 1-42 amyloid fibrils (Homo sapiens, UniProt P05067); experiment: Disassembly/disruption of pre-formed Aβ 1-42 fibrils, Thioflavin T fluorometry; conditions: for inhibition at 100 µg/mL: read-out: Fluorescence inhibition, %, at the Aβ 1-42:compound w/w ratio 1:1
T1 construct: 1 mg of Aβ 1-42 (Bachem Inc., Torrance, Calif., USA) was dissolved; purchased Bachem Inc., Torrance, Calif., USA
T1 sequence (P05067 672-713): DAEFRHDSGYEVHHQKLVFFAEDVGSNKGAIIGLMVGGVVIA
Method: For the first study, 1 mg of Aβ 1-42 (Bachem Inc., Torrance, Calif., USA) was dissolved in 1.0 ml of double distilled water (1 mg/ml solution). 25 μM of Aβ 1-42 was then incubated overnight (˜18 hours) at 37° C., in the absence or presence of 100 μg/ml of the following compounds: 1) EDTA (Sigma Chemical Company, St. Louis, Mo., USA), 2) myricetin (Acros, Somerville, N.J., USA), 3) exifone (Acros) 4) pyrogallol (Sigma), 5) tannic acid (Acros), 6) pyrocatechol (Acros), 7) quercetin (Sigma), 8) ellagic acid (Acros), 9) 1,2,4-benzenetriol (Acros), 10) 5-hydroxydopamine (Acros), 11) gallamide hydrate (Acros), 12) gallic acid (Sigma), 13) ethyl gallate (Acros), 14) quinic acid (Acros), 15) propyl gallate (Sigma), and 16) phloroglucide (Acros), each in the presence of 150 mM Tris HCl, 10 mM NaCl (pH 7.0) with 0.02% sodium azide. In this study, the A 1-42:compound weight ratio was 1:1. […]
Thioflavin T is known to bind to fibrillar amyloid proteins, and an increase in fluorescence correlates with an increase in amyloid fibril formation, whereas a decrease in fluorescence correlates with a decrease in amyloid fibrils due to disassembly and/or disruption. The Alzheimer's Aβ protein (1-42) when placed in solution, such as distilled water, tends to spontaneously form amyloid fibrils. Using this sensitive assay, any decreases or increases in fluorescence was previously shown to correlate with a decrease or increase in the amount of amyloid fibrils (see the documents cited above), allowing one to identify and quantitate the extent of potential inhibitors and/or enhancers of Alzheimer's Aβ 1-42 amyloid fibrils.
To assess the effects of each compound on potential disassembly/disruption of preformed Aβ 1-42 fibrils, 50 μl of Aβ 1-42 with or without test compounds (described above) were added to 1.2 ml of 100 μM Thioflavin T (Sigma) in 50 mM NaH2PO4 (pH 6.0) for fluorometry readings. […] Fluorescence emission at 482 nm was measured on a Turner instrument-model 450 fluorometer at an excitation wavelength of 450 nm. For each determination, the fluorometer was calibrated by zeroing in the presence of the Thioflavin T reagent alone, and by setting the 50 ng/ml riboflavin (Sigma Chemical Co., St. Louis, Mo.) in the Thioflavin T reagent to 1800 fluorescence units. All fluorescence determinations were based on these references and any fluorescence given off by any of the compounds in the presence of the Thioflavin T reagent was always subtracted from all pertinent readings.
For all fibrillogenesis studies utilizing Thioflavin T fluorometry, as disclosed herein, comparisons of amyloid protein in the presence or absence of test compounds were based on paired Student's t tests with data shown as the mean of triplicate measurements±standard deviation.

human amylin fibrils = molecular target: T2, human amylin fibrils (Homo sapiens, UniProt P10997); experiment: Congo red staining of amylin fibrils on slides; conditions: overnight incubation of amylin with compound, compared with amylin alone
T2 construct: This amyloid protein involved consists of a 37 amino acid protein known as islet amyloid polypeptide or amylin; purchased Bachem
T2 sequence (P10997 34-70 limits assumed): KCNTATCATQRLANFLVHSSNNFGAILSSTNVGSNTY
Method: Following Thioflavin T fluorometry readings as described in Example 1, 5 μl aliquots of amylin only, amylin+myricetin, amylin+exifone, and amylin+tannic acid were also taken, allowed to air dry overnight on gelatin-coated slides, and stained with Congo red as previously described (Castillo et al., Diabetes 47:612-620, 1998).

Aβ 1-40 amyloid fibrils = molecular target: T3, Aβ 1-40 amyloid fibrils (Homo sapiens, UniProt P05067); experiment: Dose-dependent disaggregation of fibrillized Aβ 1-40, Congo red-Aβ spectrophotometric assay; conditions: w/w 1:1, 100 μg/ml compound, 25 μM Aβ 1-40, overnight (~18 hours) at 37° C.
T3 construct: 1 mg of Aβ 1-40 (Bachem Inc., Torrance, Calif., USA; Lot # T-20824) was dissolved; purchased Bachem Inc., Torrance, Calif., USA
T3 sequence (P05067 672-711): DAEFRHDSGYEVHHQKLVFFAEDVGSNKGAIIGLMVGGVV
Method: In this study, a Congo red-Aβ spectrophotometric assay (Klunk et al., Anal. Biochem. 266:66-76, 1999) was modified to determine the effectiveness of polyhydroxylated aromatic compounds on the disaggregation of pre-formed Aβ 1-40 amyloid fibrils. For this assay, 1 mg of Aβ 1-40 (Bachem) was incubated for 4 days in distilled water at 37° C. to spontaneously produce amyloid fibrils. […] Following incubation, 50 μl of 360 μM Congo red (Sigma) in distilled water was then added to 250 μl of each incubation mixture, giving a final Aβ:Congo red molar ratio of 1:3. After 10 minutes, the absorbance at 405 nm (reference wavelength to account for the absorbance of Congo red alone at 540 nm) and 540 nm (sample absorbance where “sample” refers to Aβ alone, test compound alone, or Aβ plus test compound, all in the presence of Congo red) was determined using a Biorad Model 550 ELISA Plate Reader (Biorad, Hercules, Calif., USA). The absorbance at wavelength 405 nm was automatically subtracted by the ELISA plate reader from the absorbance at wavelength 540 nm (difference is referred to as A absorbance)(see Klunk et al. cited above). Therefore, the A absorbance reading at 540 nm was proportional to the amount of aggregated Aβ left in solution (Klunk et al.). […]
In this study, the potential dose-dependent effects of tannic acid and gallic acid on the disaggregation of fibrillized Aβ 1-40 was assessed. […]

[2] = Aβ 1-42:compound w/w 1:1, 100 μg/ml compound, 25 μM Aβ 1-42, overnight (~18 hours) at 37° C., mean of triplicate ± SD

Compound: Oc1ccc(O)c(O)c1 [1,2,4-Benzenetriol, 1,2,4-benzenetriol]
inhibition at 100 µg/mL [1, 2]: 71 ± 3.3%

Compound: NCCc1cc(O)c(O)c(O)c1 [5-Hydroxydopamine, 5-hydroxydopamine]
inhibition at 100 µg/mL [1, 2]: 70 ± 1.1%

Disassembly/disruption of Aβ 1-42 amyloid fibrils (result in words) ([1]; 100 μg/ml, 25 μM Aβ 1-42, overnight (~18 hours) at 37° C., Thioflavin T fluorometry): no significant disassembly/disruption
Compound: O=C(O)CN(CCN(CC(=O)O)CC(=O)O)CC(=O)O [EDTA, reference compound]

inhibition at 100 µg/mL [1, 2]: 74 ± 1.4%
Compound: O=c1oc2c(O)c(O)cc3c(=O)oc4c(O)c(O)cc1c4c23 [Ellagic acid, ellagic acid]

inhibition at 100 µg/mL [1, 2]: 49 ± 0.8%
Compound: CCOC(=O)c1cc(O)c(O)c(O)c1 [Ethyl gallate, ethyl gallate]

Compound: O=C(c1cc(O)c(O)c(O)c1)c1ccc(O)c(O)c1O [Exifone, exifone]
Congo red staining of amylin fibrils (red/green birefringence under polarized light) (human amylin fibrils): marked decrease in Congo red staining
inhibition at 100 µg/mL ([1]; 18 h): 93 ± 1.4%

Compound: NC(=O)c1cc(O)c(O)c(O)c1 [Gallamide trihydrate, gallamide trihydrate]
inhibition at 100 µg/mL ([1]; 18 h): 65 ± 12.3%

inhibition at 100 µg/mL [1, 2]: 57 ± 1.9%
Decrease in absorbance, %, at the Aβ 1-40:compound w/w ratio 1:1 (Aβ 1-40 amyloid fibrils): 32 ± 4.8%
Compound: O=C(O)c1cc(O)c(O)c(O)c1 [Gallic acid, gallic acid]

Compound: O=c1c(O)c(-c2cc(O)c(O)c(O)c2)oc2cc(O)cc(O)c12 [Myricetin, myricetin]
Congo red staining of amylin fibrils (red/green birefringence under polarized light) (human amylin fibrils): marked decrease in Congo red staining
inhibition at 100 µg/mL ([1]; 18 h): 94 ± 0.9%

inhibition at 100 µg/mL [1, 2]: 29 ± 2.8%
Compound: CCCOC(=O)c1cc(O)c(O)c(O)c1 [Propyl gallate, propyl gallate]

Compound: Oc1ccccc1O [Pyrocatechol, pyrocatechol]
inhibition at 100 µg/mL [1, 2]: 77 ± 2.6%

inhibition at 100 µg/mL [1, 2]: 89 ± 6.7%
Compound: Oc1cccc(O)c1O [Pyrogallol, pyrogallol]

Compound: O=c1c(O)c(-c2ccc(O)c(O)c2)oc2cc(O)cc(O)c12 [Quercetin, quercetin]
Fluorescence inhibition, %, at the Aβ 1-42:compound w/w ratio 1:1 [1, 2]: 76 ± 0.6%

inhibition at 100 µg/mL [1, 2]: 31 ± 9%
Compound: O=C(O)[C@]1(O)C[C@@H](O)[C@@H](O)[C@H](O)C1 [Quinic acid, quinic acid]

Compound: O=C(OC[C@H]1O[C@@H](OC(=O)c2cc(O)c(O)c(OC(=O)c3cc(O)c(O)c(O)c3)c2)[C@H](OC(=O)c2cc(O)c(O)c(OC(=O)c3cc(O)c(O)c(O)c3)c2)[C@@H](OC(=O)c2cc(O)c(O)c(OC(=O)c3cc(O)c(O)c(O)c3)c2)[C@@H]1OC(=O)c1cc(O)c(O)c(OC(=O)c2cc(O)c(O)c(O)c2)c1)c1cc(O)c(O)c(OC(=O)c2cc(O)c(O)c(O)c2)c1 [Tannic acid, tannic acid]
Congo red staining of amylin fibrils (red/green birefringence under polarized light) (human amylin fibrils): marked decrease in Congo red staining
inhibition at 100 µg/mL ([1]; 18 h): 77 ± 1.3%
